{"source": "paper PMC11111408", "about": "“Concurrent inhibition of oncogenic and wild-type RAS-GTP for cancer therapy” (Nature, 2024)", "key": {"[1]": {"tested_on": "Pa16C cells expressing MEK1 mutants", "assay": "Proliferation (Calcein AM) of Pa16C cells expressing MEK1 mutants", "type": "cell-based, human"}, "[2]": {"tested_on": "NCI-H358 cells (CYPA-high, CYPA-low)", "assay": "pERK (MSD) in NCI-H358 cells with low or high CYPA", "settings": "NCI-H358, doxycycline-inducible CYPA", "description": "NCI-H358 cells were transduced by lentivirus encoding Cas9, a guide RNA targeting PPIA (which encodes CYPA), and the puromycin resistance gene at WarpDrive Bio. Following puromycin selection, Flag–CYPA was introduced under the control of a tet-inducible promoter by lentivirus. Clones with high and low expression levels of Flag–CYPA were isolated at Revolution Medicines."}, "[3]": {"biological_target": "KRAS^G12A (Homo sapiens, UniProt P01116+P62937, G12A)", "assay": "Cellular RAS–RAF (CRAF RBD) disruption, nano-BRET in U2OS cells", "type": "cell-based", "parameters": "expressed in transfected cells; host or cells: U2OS or U2OS PPIA-KO", "settings": "(95% CI)", "from_the_text": "(§1) KRAS4B, or other small GTPases, containing the indicated mutations were cloned in pNLF-N or pHTN plasmids for expression with an N-terminal nanoluciferase or HaloTag fusion, respectively. […] The following day, the cells were collected by Trypsin and reseeded in a white tissue culture-treated 96-well plate in OptiMem phenol red-free medium (Gibco) containing 4% FBS and a 1:1,000 dilution of NanoBRET 618 HaloTag ligand (Promega). For endpoint concentration response curves, vivazine nanoluciferase substrate was added to 1× concentration in OptiMem phenol red-free medium with 4% FBS. Varying concentrations of inhibitor were added and incubated for 1 or 4 h before the nano-BRET signal was measured on a Perkin Elmer Envision plate reader. For kinetic assays, endurazine nanoluciferase substrate was used in place of vivazine, and the plate was placed in a Cytation5 multi-mode reader pre-equilibrated to 37 °C and 5% CO2."}, "[4]": {"biological_target": "KRAS^Q61H (Homo sapiens, UniProt P01116+P62937, Q61H)", "assay": "Cellular RAS–RAF (CRAF RBD) disruption, nano-BRET in U2OS cells", "type": "cell-based", "parameters": "expressed in transfected cells; host or cells: U2OS or U2OS PPIA-KO", "settings": "(95% CI)", "from_the_text": "as §1"}, "[5]": {"assay": "Mouse blood and tumour pharmacokinetics in NCI-H441 tumour bearing mice", "settings": "for RMC-7977 (nmol/kg) Tumor: single dose, individual animals", "protocol": "Tumour tissue samples were homogenized with a 10× volume of methanol/15 mM PBS (1:2, v:v). Sample preparation and analysis on a Sciex 6500+ triple quadrupole mass spectrometer equipped with an ACQUITY UPLC system were performed as previously described[12].\nAll datapoints shown, n = 3 per dose and timepoint.\nFemale BALB/c nude mice, NOD SCID and NSG mice 6-8 weeks old from Beijing Vital River/VR Laboratory Animal Co., LTD, Beijing AniKeeper Biotech Co., Ltd., Shanghai Sino-British SIPPR/BK Laboratory Animal Co., LTD and The Jackson Laboratory were used. Animals were housed in polycarbonate cages, in an environmentally monitored, well ventilated room maintained at a constant temperature of 20-26°C and relative humidity of 40-80%. Fluorescent lighting provided illumination approximately 12 hours per day. Each mouse was inoculated at the right flank with tumor cells (2x10^6-1x10^7) in 100-200 µL of media/PBS supplemented with Matrigel (1:1). Treatments were started when the average tumor size reached 100-250 mm^3. […] Mice on studies were weighed and tumor measurements collected twice weekly. […] Body weights were collected twice a week during the study. For single-dose pharmacokinetic/pharmacodynamics (PK/PD) study, mice were randomized into treatment groups when mean tumor volume reached 400-600 mm^3."}, "[6]": {"settings": "female, BALB/c nude, mouse, tumour, po, 10 mg/kg"}, "[7]": {"settings": "female, BALB/c nude, mouse, whole blood, po, 10 mg/kg"}}, "note": "Several values for one entry are separate records, joined by “and”; a condition that tells them apart may be missing. Identical values can stand only once.", "data": [{"smiles": "CCn1c(-c2cc(N3CCN(C4CC4)CC3)cnc2[C@H](C)OC)c2c3cc(ccc31)-c1csc(n1)C[C@H](NC(=O)[C@H]1[C@@H]3COC[C@@H]31)C(=O)N1CCC[C@H](N1)C(=O)OCC(C)(C)C2", "note": "[RMC-7977]", "values": [{"measurement": "Proliferation of Pa16C cells expressing MEK1 mutant constructs", "setting": "[1]; MEK1K57N, inhibitor 0.010 nM", "result": 100}, {"measurement": "Proliferation of Pa16C cells expressing MEK1 mutant constructs", "setting": "[1]; MEK1K57N, inhibitor 0.046 nM", "result": "132.7 and 110.5 and 108.3"}, {"measurement": "Proliferation of Pa16C cells expressing MEK1 mutant constructs", "setting": "[1]; MEK1K57N, inhibitor 11.111 nM", "result": "106.5 and 108.3 and 128.9"}, {"measurement": "Proliferation of Pa16C cells expressing MEK1 mutant constructs", "setting": "[1]; MEK1K57N, inhibitor 33.333 nM", "result": "101 and 88.9 and 126.9"}, {"measurement": "Proliferation of Pa16C cells expressing MEK1 mutant constructs", "setting": "[1]; MEK1K57N, inhibitor 100.000 nM", "result": "86.3 and 76.5 and 119.3"}, {"measurement": "Proliferation of Pa16C cells expressing MEK1 mutant constructs", "setting": "[1]; MEK1K57N, inhibitor 300.000 nM", "result": "68.3 and 60.7 and 90.3"}, {"measurement": "Proliferation of Pa16C cells expressing MEK1 mutant constructs", "setting": "[1]; MEK1Q56P, inhibitor 0.010 nM", "result": 100}, {"measurement": "Proliferation of Pa16C cells expressing MEK1 mutant constructs", "setting": "[1]; MEK1Q56P, inhibitor 0.046 nM", "result": "111.1 and 128.1 and 116.5"}, {"measurement": "Proliferation of Pa16C cells expressing MEK1 mutant constructs", "setting": "[1]; MEK1Q56P, inhibitor 11.111 nM", "result": "109 and 97.6 and 77.9"}, {"measurement": "Proliferation of Pa16C cells expressing MEK1 mutant constructs", "setting": "[1]; MEK1Q56P, inhibitor 33.333 nM", "result": "99.6 and 83.8 and 68"}, {"measurement": "Proliferation of Pa16C cells expressing MEK1 mutant constructs", "setting": "[1]; MEK1Q56P, inhibitor 100.000 nM", "result": "81.8 and 65.9 and 54.2"}, {"measurement": "Proliferation of Pa16C cells expressing MEK1 mutant constructs", "setting": "[1]; MEK1Q56P, inhibitor 300.000 nM", "result": "72.6 and 57.1 and 47.4"}, {"measurement": "Proliferation of Pa16C cells expressing MEK1 mutant constructs", "setting": "[1]; MEK1S218D/S222D, inhibitor 0.010 nM", "result": 100}, {"measurement": "Proliferation of Pa16C cells expressing MEK1 mutant constructs", "setting": "[1]; MEK1S218D/S222D, inhibitor 0.046 nM", "result": "98 and 111.5 and 106.4 and 100.9"}, {"measurement": "Proliferation of Pa16C cells expressing MEK1 mutant constructs", "setting": "[1]; MEK1S218D/S222D, inhibitor 11.111 nM", "result": "89.6 and 94.3 and 98.3 and 90.9"}, {"measurement": "Proliferation of Pa16C cells expressing MEK1 mutant constructs", "setting": "[1]; MEK1S218D/S222D, inhibitor 33.333 nM", "result": "86.8 and 90.6 and 104.9 and 86"}, {"measurement": "Proliferation of Pa16C cells expressing MEK1 mutant constructs", "setting": "[1]; MEK1S218D/S222D, inhibitor 100.000 nM", "result": "81.6 and 87.3 and 91 and 73.6"}, {"measurement": "Proliferation of Pa16C cells expressing MEK1 mutant constructs", "setting": "[1]; MEK1S218D/S222D, inhibitor 300.000 nM", "result": "72.8 and 76 and 71.6 and 55.5"}, {"measurement": "Proliferation of Pa16C cells expressing MEK1 mutant constructs", "setting": "[1]; MEK1WT, inhibitor 0.010 nM", "result": 100}, {"measurement": "Proliferation of Pa16C cells expressing MEK1 mutant constructs", "setting": "[1]; MEK1WT, inhibitor 0.046 nM", "result": "97.2 and 123.9 and 122.4 and 107.7"}, {"measurement": "Proliferation of Pa16C cells expressing MEK1 mutant constructs", "setting": "[1]; MEK1WT, inhibitor 11.111 nM", "result": "34.9 and 22.9 and 31.4 and 22.8"}, {"measurement": "Proliferation of Pa16C cells expressing MEK1 mutant constructs", "setting": "[1]; MEK1WT, inhibitor 33.333 nM", "result": "19.9 and 13.1 and 14.8 and 12.8"}, {"measurement": "Proliferation of Pa16C cells expressing MEK1 mutant constructs", "setting": "[1]; MEK1WT, inhibitor 100.000 nM", "result": "14.4 and 9 and 9.5 and 10.2"}, {"measurement": "Proliferation of Pa16C cells expressing MEK1 mutant constructs", "setting": "[1]; MEK1WT, inhibitor 300.000 nM", "result": "9.7 and 8 and 8.2 and 8.6"}, {"measurement": "sensitivity of CYPA-high versus CYPA-low cells, inhibition of signalling (pERK)", "setting": "[2]", "result": "threefold"}, {"measurement": "EC50", "setting": "[3]", "result": 0.0303, "unit": "µM"}, {"measurement": "EC50", "setting": "[4]", "result": 0.0172, "unit": "µM"}, {"measurement": "AUC(0-t)", "setting": "[5]; [6]", "result": 24.3, "unit": "µg·h/mL"}, {"measurement": "half-life", "setting": "[5]; [6]", "result": 18.3, "unit": "h"}, {"measurement": "AUC(0-t)", "setting": "[5]; [7]", "result": 7.24, "unit": "µg·h/mL"}, {"measurement": "Cmax", "setting": "[5]; [7]", "result": 1.11, "unit": "µg/mL"}, {"measurement": "half-life", "setting": "[5]; [7]", "result": 2.78, "unit": "h"}, {"measurement": "RMC-7977 (nmol/kg) Tumor", "setting": "[5]; 8h, 1 mg/kg", "result": "244 nmol/kg and 196 nmol/kg and 235 nmol/kg"}, {"measurement": "RMC-7977 (nmol/kg) Tumor", "setting": "[5]; 8h, 5 mg/kg", "result": "458 nmol/kg and 496 nmol/kg and 1040 nmol/kg"}, {"measurement": "RMC-7977 (nmol/kg) Tumor", "setting": "[5]; 8h, 10 mg/kg", "result": "998 nmol/kg and 832 nmol/kg and 1249 nmol/kg and 1135 nmol/kg and 713 nmol/kg and 1191 nmol/kg"}, {"measurement": "RMC-7977 (nmol/kg) Tumor", "setting": "[5]; 8h, 25 mg/kg", "result": "2289 nmol/kg and 4057 nmol/kg and 2196 nmol/kg"}, {"measurement": "RMC-7977 (nmol/kg) Tumor", "setting": "[5]; 24h, 1 mg/kg", "result": "38.1 nmol/kg and 54.8 nmol/kg and 48.3 nmol/kg"}, {"measurement": "RMC-7977 (nmol/kg) Tumor", "setting": "[5]; 24h, 5 mg/kg", "result": "201 nmol/kg and 183 nmol/kg and 226 nmol/kg"}, {"measurement": "RMC-7977 (nmol/kg) Tumor", "setting": "[5]; 24h, 10 mg/kg", "result": "310 nmol/kg and 343 nmol/kg and 320 nmol/kg and 402 nmol/kg and 316 nmol/kg and 606 nmol/kg"}, {"measurement": "RMC-7977 (nmol/kg) Tumor", "setting": "[5]; 24h, 25 mg/kg", "result": "1047 nmol/kg and 906 nmol/kg and 996 nmol/kg"}, {"measurement": "RMC-7977 (nmol/kg) Tumor", "setting": "[5]; 48h, 1 mg/kg", "result": "27 nmol/kg and 31.7 nmol/kg"}, {"measurement": "RMC-7977 (nmol/kg) Tumor", "setting": "[5]; 48h, 5 mg/kg", "result": "68.9 nmol/kg and 51.9 nmol/kg and 52.5 nmol/kg"}, {"measurement": "RMC-7977 (nmol/kg) Tumor", "setting": "[5]; 48h, 10 mg/kg", "result": "177 nmol/kg and 192 nmol/kg and 214 nmol/kg and 205 nmol/kg and 233 nmol/kg and 65.7 nmol/kg"}, {"measurement": "RMC-7977 (nmol/kg) Tumor", "setting": "[5]; 48h, 25 mg/kg", "result": "433 nmol/kg and 394 nmol/kg and 691 nmol/kg"}, {"measurement": "RMC-7977 (nmol/kg) Tumor", "setting": "[5]; 72h, 5 mg/kg", "result": "52.4 nmol/kg and 38.4 nmol/kg"}, {"measurement": "RMC-7977 (nmol/kg) Tumor", "setting": "[5]; 72h, 10 mg/kg", "result": "155 nmol/kg and 86.2 nmol/kg and 63.8 nmol/kg and 71.8 nmol/kg and 72 nmol/kg"}, {"measurement": "RMC-7977 (nmol/kg) Tumor", "setting": "[5]; 72h, 25 mg/kg", "result": "253 nmol/kg and 209 nmol/kg and 230 nmol/kg"}, {"measurement": "overall exposure in subcutaneous tumours compared with blood", "setting": "[5]; subcutaneous xenograft tumour models", "result": "approximately threefold increase"}]}]}
